Data on 11 compounds can be found in patent publication US8071768B2, “Alkylquinoline and alkylquinazoline kinase modulators” (Janssen Pharmaceutica, N.V., priority 2005, dated 2011).

Assay [1] deals with T1, isolated kinase domain of the human c-kit receptor (Homo sapiens, UniProt P10721).
T1 construct: isolated kinase domain of the human c-kit receptor; purchased ProQinase lot SP005
Kind of assay: c-Kit Fluorescence Polarization Kinase Assay. Particulars: uncertainty ±10%; read-out: ckit IC50. The format is biochemical. How it is done: c-Kit Fluorescence Polarization Kinase Assay
The compounds of the present invention are also specific inhibitors of c-Kit. Selection of preferred compounds of Formula I for use as c-Kit inhibitors was performed in the following manner using an in vitro kinase assay to measure inhibition of the isolated kinase domain of the human c-kit receptor in a fluorescence polarization (FP) protocol. The c-kit assay utilized the fluorescein-labeled phosphopeptide and the anti-phosphotyrosine antibody included in the Panvera Phospho-Tyrosine Kinase Kit (Green) supplied by Invitrogen. When c-kit phosphorylated the poly Glu4Tyr, the fluorescein-labeled phosphopeptide was displaced from the anti-phosphotyrosine antibody by the phosphorylated poly Glu4Tyr, thus decreasing the FP value. The c-kit kinase reaction was incubated at room temperature for 45 minutes under the following conditions: 1 nM c-kit (ProQinase, lot SP005), 100 ug/mL poly Glu4Tyr, 50 uM ATP, 5 mM MgCl2, 1 mM DTT, 0.01% Tween-20, 1% DMSO or compound in […], pH 7.5. The kinase reaction was stopped with the addition of EDTA. The fluorescein-labeled phosphopeptide and the anti-phosphotyrosine antibody were added and incubated for 30 minutes at room temperature and fluorescence polarization was read. Data points were an average of triplicate samples. Inhibition and IC50 data analysis were done with GraphPad Prism using a non-linear regression fit with a multiparamater, sigmoidal dose-response (variable slope) equation.
(In general: Polarisation of emitted light reports the rotation of a fluorescent probe.)

Assay [2] has as its target T2, TrkB (Homo sapiens, UniProt Q16620).
T2 construct: purchased Upstate 14-507M
Nature of the assay: Trk B Fluorescence Polarization Kinase Assay. The assay is classed as biochemical. The following applies: uncertainty ±10%. In short, it runs like this: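 The TrkB kinase reaction (50 nM enzyme, 20 ug/mL poly Glu4Tyr, 150 uM ATP, 5 mM MgCl2, 1% DMSO) ran 30 minutes at room temperature and was stopped with EDTA. Phosphorylation was detected by fluorescence-polarization displacement of a fluorescein phosphopeptide from an anti-phosphotyrosine antibody. IC50 came from a variable-slope sigmoidal fit of triplicates.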

Where a name gives a salt, the structure may show the parent alone.

T1 sequence (P10721 589-937 limits assumed): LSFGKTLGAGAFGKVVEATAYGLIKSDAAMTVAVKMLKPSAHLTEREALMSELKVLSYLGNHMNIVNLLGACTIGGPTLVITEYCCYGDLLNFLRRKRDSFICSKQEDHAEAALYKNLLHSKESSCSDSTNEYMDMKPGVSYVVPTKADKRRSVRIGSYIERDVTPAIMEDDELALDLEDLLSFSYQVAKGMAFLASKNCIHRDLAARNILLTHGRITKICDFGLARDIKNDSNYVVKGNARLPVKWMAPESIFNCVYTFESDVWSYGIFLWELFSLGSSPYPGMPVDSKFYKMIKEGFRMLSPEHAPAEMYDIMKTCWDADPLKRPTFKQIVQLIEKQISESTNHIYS
T2 sequence (Q16620 32-822): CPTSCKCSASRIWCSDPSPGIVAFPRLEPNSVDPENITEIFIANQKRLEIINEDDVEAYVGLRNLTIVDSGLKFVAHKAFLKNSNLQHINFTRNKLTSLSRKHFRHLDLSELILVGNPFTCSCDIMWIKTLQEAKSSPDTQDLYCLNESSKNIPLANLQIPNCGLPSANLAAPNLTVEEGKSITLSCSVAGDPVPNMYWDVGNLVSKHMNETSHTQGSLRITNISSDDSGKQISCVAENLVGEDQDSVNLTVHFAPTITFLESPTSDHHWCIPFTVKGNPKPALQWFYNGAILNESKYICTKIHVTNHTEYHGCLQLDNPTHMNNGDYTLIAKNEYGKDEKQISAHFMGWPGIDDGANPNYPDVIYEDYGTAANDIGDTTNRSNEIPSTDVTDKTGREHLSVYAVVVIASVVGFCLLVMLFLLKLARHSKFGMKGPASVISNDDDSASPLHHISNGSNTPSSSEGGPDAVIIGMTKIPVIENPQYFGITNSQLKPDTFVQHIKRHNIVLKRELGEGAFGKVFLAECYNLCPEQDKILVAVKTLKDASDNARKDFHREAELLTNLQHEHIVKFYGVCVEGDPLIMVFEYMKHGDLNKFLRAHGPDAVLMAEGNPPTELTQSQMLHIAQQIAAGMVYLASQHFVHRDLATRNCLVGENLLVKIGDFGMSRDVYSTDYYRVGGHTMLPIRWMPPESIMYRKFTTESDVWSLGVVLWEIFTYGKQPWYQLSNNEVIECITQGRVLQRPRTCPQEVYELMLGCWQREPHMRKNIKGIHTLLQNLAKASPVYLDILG

With `O=C1CCCN1CCCOc1ccc2c(C3CCN(C(=O)Nc4ccc(N5CCCC5)nc4)CC3)ncnc2c1` [Compound 89, 4-{7-[3-(2-Oxo-pyrrolidin-1-yl)-propoxy]-quinazolin-4-yl}-piperidine-1-carboxylic acid (6-pyrrolidin-1-yl-pyridin-3-yl)-amide], the IC50 in assay [1] was determined as 13 nM; in assay [2], 2700 nM.

Take `O=C1CCCN1CCOc1ccc2c(C3CCN(C(=O)Nc4ccc(N5CCOCC5)nc4)CC3)ncnc2c1` [Compound 83, 4-{7-[2-(2-Oxo-pyrrolidin-1-yl)-ethoxy]-quinazolin-4-yl}-piperidine-1-carboxylic acid (6-morpholin-4-yl-pyridin-3-yl)-amide]: the figures for the IC50 in assay [1] and in assay [2] were 25 nM and 8500 nM, respectively.

For `COc1cc2ncnc(C3CCN(C(=O)Nc4ccc(OC5CCC5)nc4)CC3)c2cc1OC` [Compound 17, 4-(6,7-Dimethoxy-quinazolin-4-yl)-piperidine-1-carboxylic acid (6-cyclobutoxy-pyridin-3-yl)-amide], the IC50 in assay [1] came out at 77.5 nM; in assay [2] it was 500 nM.

`O=C1CCCN1CCCOc1ccc2c(C3CCN(C(=O)Nc4ccc(N5CCOCC5)cc4)CC3)ncnc2c1` [Compound 68, 4-{7-[3-(2-Oxo-pyrrolidin-1-yl)-propoxy]-quinazolin-4-yl}-piperidine-1-carboxylic acid (4-morpholin-4-yl-phenyl)-amide]: the results for the IC50 in assay [1] and in assay [2] were 28 nM and greater than 20000 nM, respectively.

Turning to `COc1cc2ncnc(C3CCN(C(=O)Nc4ccc(C(C)C)cc4)CC3)c2cc1OC` [Compound 4, 4-(6,7-Dimethoxy-quinazolin-4-yl)-piperidine-1-carboxylic acid (4-isopropyl-phenyl)-amide], the half-inhibitory concentration (IC50) in assay [1] is 610 nM.

Regarding `COc1cc2ncnc(C3CCN(C(=O)Nc4ccc(OC(C)C)cc4)CC3)c2cc1OC` [Compound 1, 4-(6,7-Dimethoxy-quinazolin-4-yl)-piperidine-1-carboxylic acid (4-isopropoxy-phenyl)-amide hydrochloride], the IC50 in assay [1] came to 82.5 nM; in assay [2] it was 220 nM.

For the compound `CS(=O)(=O)NCCCOc1ccc2c(C3CCN(C(=O)Nc4ccc(OC5CCCC5)nc4)CC3)ncnc2c1` [Compound 88, 4-[7-(3-Methanesulfonylamino-propoxy)-quinazolin-4-yl]-piperidine-1-carboxylic acid (6-cyclopentyloxy-pyridin-3-yl)-amide], the concentration for half-maximal inhibition (IC50) amounted to 11 nM in assay [1] and 400 nM in assay [2].

On to `CC(C)Oc1ccc(NC(=O)N2CCC(c3ncnc4ccc(OCCCN5CCN(C)CC5)cc34)CC2)cc1` [Compound 76, 4-{6-[3-(4-Methyl-piperazin-1-yl)-propoxy]-quinazolin-4-yl}-piperidine-1-carboxylic acid (4-isopropoxy-phenyl)-amide], for which the IC50 amounted to 282 nM in assay [1] and 7900 nM in assay [2].

Take `COc1cc2ncnc(C3CCN(C(=O)Nc4ccc(N5CCOCC5)cc4)CC3)c2cc1OC` [Compound 18, 4-(6,7-Dimethoxy-quinazolin-4-yl)-piperidine-1-carboxylic acid (4-morpholin-4-yl-phenyl)-amide]: the IC50 in assay [1] is 158 nM; in assay [2], 19200 nM.

With `O=C1CCCN1CCCOc1ccc2c(C3CCN(C(=O)Nc4ccc(N5CCOCC5)nc4)CC3)ncnc2c1` [Compound 72, 4-{7-[3-(2-Oxo-pyrrolidin-1-yl)-propoxy]-quinazolin-4-yl}-piperidine-1-carboxylic acid (6-morpholin-4-yl-pyridin-3-yl)-amide], the values for the IC50 in assay [1] and in assay [2] were 23 nM and 2000 nM, respectively.

Turning to `CN1CCN(CCCOc2ccc3c(C4CCN(C(=O)Nc5ccc(N6CCOCC6)nc5)CC4)ncnc3c2)CC1` [Compound 80, 4-{7-[3-(4-Methyl-piperazin-1-yl)-propoxy]-quinazolin-4-yl}-piperidine-1-carboxylic acid (6-morpholin-4-yl-pyridin-3-yl)-amide], the IC50 amounted to 160 nM in assay [1] and 9100 nM in assay [2].

As usually defined, the IC50 is the concentration that inhibits the measured activity by half.
